Columns and labels:
[1] = biological target: PRMT6 (Homo sapiens, UniProt Q96LA8); assay: selectivity of YD1113/YD1290 on PRMT panel, PRMT6; assay type: biochemical; conditions: 10 μM; PRMT panel
Method: (§1) The selectivity of compounds YD1113 and YD1290 on PRMTs were performed by Reaction Biology Corp.
(§2) Next, the selectivity of YD1113 was investigated on a panel of PRMTs at 10 μM.
(§3) After validating the benzyl urea moiety as an unconventional homocysteine mimic of SAH for PRMTs, it was hypothesized that incorporating the benzyl urea moiety into the original pan PRMT inhibitor II757 would build a potent bisubstrate inhibitor. […] To enable a stable tri-substitution, the sulfur atom with a nitrogen atom was replaced. YD1290 was synthesized following the reported methods 9, 15 and tested in a radioactivity assay for PRMTs (FIG. 6b).

[2] = biological target: T1, PRMT3 (Homo sapiens, UniProt O60678); assay: SAHH-coupled fluorescence assay, inhibition of PRMT3; assay type: biochemical; design: PRMT3 (residues 211-531) was cloned into the pET28a-MHL expression vector; tag of the pET28a-MHL vector (not described); made in house; host or cells: Escherichia coli BL21(DE3)
Procedure, shortened: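 Coupled SAHH/ThioGlo4 fluorescence read-out (ex 380 nm, em 505 nm) of PRMT3 (0.25 μM) methylation with 30 μM AdoMet and 5 μM SAHH. Buffer was 20 mM Tris pH 7.5 with 0.01% Triton X-100. Run in duplicate.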
Target sequence in this assay (O60678 211-531): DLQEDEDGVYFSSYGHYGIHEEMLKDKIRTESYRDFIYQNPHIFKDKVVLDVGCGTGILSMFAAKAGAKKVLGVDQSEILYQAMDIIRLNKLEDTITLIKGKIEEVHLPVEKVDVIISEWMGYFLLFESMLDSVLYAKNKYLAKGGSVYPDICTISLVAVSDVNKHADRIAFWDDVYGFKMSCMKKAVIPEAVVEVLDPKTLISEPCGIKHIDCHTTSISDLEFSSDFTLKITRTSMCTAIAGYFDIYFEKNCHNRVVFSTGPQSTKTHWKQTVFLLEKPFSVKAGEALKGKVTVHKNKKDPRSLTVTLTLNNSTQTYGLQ

[3] = biological target: T2, PRMT4 (Homo sapiens, UniProt Q86X55); assay: thermal shift assay PRMT4; assay type: binding; conditions: 100 μM compound, 20 μM protein
T2 construct: PRMT4 (residues 140-480) was cloned into the pFBOH-MHL vector; tag of the pFBOH-MHL vector (poly-His implied by Ni-NTA purification; not described); made in house; host or cells: Sf9 insect cells
Method: The fluorescence-based thermal shift assay was performed using a StepOne plus qPCR instrument (Thermal Fisher). For PRMT1, 10 μM of protein was mixed with 2× sypro orange and DMSO, or 100 μM SAM, or 100 μM YD1113, or 100 μM YD1290 in a buffer consisting of 2.5 mM HEPES (pH=7.0), 25 mM NaCl, 25 μM EDTA, 50 μM TCEP, 0.01% Triton X-100. For PRMT3, 20 μM of protein was mixed with 2× sypro orange and DMSO, or 100 μM SAM, or 100 μM YD1113, or 100 μM YD1290 in a buffer consisting of 20 mM Tris (pH=7.5), 0.01% Triton X-100. For PRMT4, 20 μM of protein was mixed with 2× sypro orange and DMSO, or 100 μM SAM, or 100 μM YD1113, or 100 μM YD1290 in a buffer consisting of 20 mM bicine (pH=8.5), 0.01% Triton X-100. All samples were heated from 25° C. to 75° C. at an increased rate of 0.5° C. per minute. Protein denaturation was monitored by the increased fluorescence signal of Sypro Orange, which captures exposed hydrophobic residues during thermal unfolding. The recorded curves were analyzed by the software StepOne plus and plotted in GraphPad Prism 8 software.
Next, the thermal shift assay (TSA) was conducted as an orthogonal method to examine the effects of YD1290 on the thermal stability of PRMT1, 3, and 4 (Figure S1).

[4] = biological target: PRMT8 (Homo sapiens, UniProt Q9NR22); assay: selectivity of YD1113/YD1290 on PRMT panel, PRMT8; assay type: biochemical; conditions: 10 μM; PRMT panel
Method: as §1, §2, §3

[5] = biological target: T1, PRMT3; assay: inhibition mechanism study on PRMT3, SAHH-coupled fluorescence; assay type: biochemical; design: PRMT3 (residues 211-531) was cloned into the pET28a-MHL expression vector; tag of the pET28a-MHL vector (not described); made in house; host or cells: Escherichia coli BL21(DE3); conditions: role: inhibitor
Method: The inhibition mechanism of YD1113 on PRMT3 was studied with the fluorescence-based SAHH-coupled assay. Varying concentrations of SAM (from 30 to 240 μM) with 30 μM fixed concentration of H4-21 or varying concentration of H4-21 (from 15 to 240 μM) with 30 μM fixed concentration of SAM were included in reactions at concentration of YD1113 ranging from 1.5 nM to 100 μM.
All the IC50 values were determined in triplicate. Fluorescence was monitored on a BMG CLARIOstar microplate reader with excitation 380 nm and emission 505 nm. Data were processed by using GraphPad Prism software 8.0.
The sensitivity of YD1113 to the steric effects in the above SAR studies (Table 1; FIG. 9) is inexplicable by a relatively open and tolerable peptide substrate binding channel of PRMTs. (Tewary et al. 2019) This contradiction prompted the hypothesis that YD1113 binds to an alternative pocket rather than acts as a bisubstrate analogue to reach the peptide binding pocket. This hypothesis was tested by investigating its inhibition mechanism with a SAHH-coupled fluorescence-based assay. (Richardson et al. 2015) The IC50 values of YD1113 remained constant with the increased ratio of peptide/Km (FIG. 3a-b) while increasing linearly with the ratio of SAM/Km (FIG. 3c-d). […]
Target sequence in this assay (O60678 211-531): as above

[6] = biological target: PRMT5 (Homo sapiens, UniProt O14744); assay: selectivity of YD1113 on PRMT panel, PRMT5; assay type: biochemical; conditions: read-out: IC50 value PRMT5
Method: as §1, §2

[7] = biological target: T1, PRMT3; assay: selectivity of YD1113/YD1290 on PRMT panel, PRMT3; assay type: biochemical
Procedure, shortened: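 Radioactivity-based PRMT activity assay run by an external provider; YD1113 profiled across the PRMT panel at 10 μM.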
Target sequence in this assay (O60678 whole entry, species assumed, the tested form may be a part): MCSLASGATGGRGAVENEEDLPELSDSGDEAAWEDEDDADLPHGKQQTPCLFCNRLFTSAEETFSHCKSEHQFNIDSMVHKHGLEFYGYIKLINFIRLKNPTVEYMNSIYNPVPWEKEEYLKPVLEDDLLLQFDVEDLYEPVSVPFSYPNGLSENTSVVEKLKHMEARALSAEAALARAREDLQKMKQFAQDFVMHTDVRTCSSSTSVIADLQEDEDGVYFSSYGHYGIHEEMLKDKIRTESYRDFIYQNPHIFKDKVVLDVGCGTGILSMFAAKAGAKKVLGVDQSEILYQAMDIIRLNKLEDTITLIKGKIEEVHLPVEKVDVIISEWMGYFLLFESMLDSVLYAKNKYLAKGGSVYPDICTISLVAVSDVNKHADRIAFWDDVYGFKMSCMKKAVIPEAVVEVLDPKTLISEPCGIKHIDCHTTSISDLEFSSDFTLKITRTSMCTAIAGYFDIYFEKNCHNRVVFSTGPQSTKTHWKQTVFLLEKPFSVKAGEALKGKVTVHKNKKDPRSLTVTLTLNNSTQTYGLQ

Sequence of PRMT5 (O14744 whole entry, species assumed): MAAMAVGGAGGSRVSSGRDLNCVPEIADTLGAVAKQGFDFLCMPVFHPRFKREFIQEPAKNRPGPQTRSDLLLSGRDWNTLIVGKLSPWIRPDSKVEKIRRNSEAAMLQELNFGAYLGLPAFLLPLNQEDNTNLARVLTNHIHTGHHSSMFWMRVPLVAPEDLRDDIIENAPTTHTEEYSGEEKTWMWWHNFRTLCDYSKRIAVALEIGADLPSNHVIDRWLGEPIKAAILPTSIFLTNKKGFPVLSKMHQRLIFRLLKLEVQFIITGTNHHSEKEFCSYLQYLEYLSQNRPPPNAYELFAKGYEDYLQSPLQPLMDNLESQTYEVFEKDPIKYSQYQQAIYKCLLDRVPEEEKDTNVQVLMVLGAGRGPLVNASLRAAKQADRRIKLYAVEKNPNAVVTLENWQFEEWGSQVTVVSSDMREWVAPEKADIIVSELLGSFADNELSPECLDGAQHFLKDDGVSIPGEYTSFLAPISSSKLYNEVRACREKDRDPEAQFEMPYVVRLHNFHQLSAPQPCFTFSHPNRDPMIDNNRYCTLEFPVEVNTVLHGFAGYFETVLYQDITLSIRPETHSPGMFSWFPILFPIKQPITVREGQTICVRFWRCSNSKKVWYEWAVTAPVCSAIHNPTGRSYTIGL
Sequence of PRMT5 (Q9BQA1 whole entry partner, species assumed): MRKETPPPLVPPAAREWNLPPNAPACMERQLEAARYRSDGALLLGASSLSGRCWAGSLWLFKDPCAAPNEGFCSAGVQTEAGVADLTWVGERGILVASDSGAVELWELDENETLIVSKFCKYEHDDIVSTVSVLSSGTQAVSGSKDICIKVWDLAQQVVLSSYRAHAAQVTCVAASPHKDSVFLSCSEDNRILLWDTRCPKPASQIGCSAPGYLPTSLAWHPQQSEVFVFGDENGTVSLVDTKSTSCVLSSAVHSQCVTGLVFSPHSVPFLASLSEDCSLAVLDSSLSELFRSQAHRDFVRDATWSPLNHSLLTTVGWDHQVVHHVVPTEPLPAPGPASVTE
Sequence of PRMT8 (Q9NR22 whole entry, species assumed): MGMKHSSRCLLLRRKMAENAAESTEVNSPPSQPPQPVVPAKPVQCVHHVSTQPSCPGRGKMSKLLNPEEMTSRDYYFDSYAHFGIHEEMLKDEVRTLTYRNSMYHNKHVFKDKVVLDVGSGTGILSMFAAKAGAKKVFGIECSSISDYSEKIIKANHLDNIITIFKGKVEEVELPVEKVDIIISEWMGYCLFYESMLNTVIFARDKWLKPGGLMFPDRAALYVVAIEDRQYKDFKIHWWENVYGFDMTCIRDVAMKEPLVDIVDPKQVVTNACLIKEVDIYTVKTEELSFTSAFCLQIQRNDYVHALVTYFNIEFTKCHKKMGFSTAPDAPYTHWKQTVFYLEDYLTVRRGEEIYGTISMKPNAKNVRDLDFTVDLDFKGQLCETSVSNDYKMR
T2 sequence (Q86X55 140-480): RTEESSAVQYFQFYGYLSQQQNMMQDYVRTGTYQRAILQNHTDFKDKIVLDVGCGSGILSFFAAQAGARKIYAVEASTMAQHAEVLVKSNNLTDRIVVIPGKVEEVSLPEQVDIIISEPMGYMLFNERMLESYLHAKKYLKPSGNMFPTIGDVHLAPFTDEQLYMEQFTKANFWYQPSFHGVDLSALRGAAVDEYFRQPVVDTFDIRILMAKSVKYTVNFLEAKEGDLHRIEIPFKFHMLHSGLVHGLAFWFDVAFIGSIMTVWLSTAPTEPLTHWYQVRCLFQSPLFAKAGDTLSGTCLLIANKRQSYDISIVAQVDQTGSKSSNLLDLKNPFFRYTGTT
Sequence of PRMT6 (Q96LA8 whole entry, species assumed): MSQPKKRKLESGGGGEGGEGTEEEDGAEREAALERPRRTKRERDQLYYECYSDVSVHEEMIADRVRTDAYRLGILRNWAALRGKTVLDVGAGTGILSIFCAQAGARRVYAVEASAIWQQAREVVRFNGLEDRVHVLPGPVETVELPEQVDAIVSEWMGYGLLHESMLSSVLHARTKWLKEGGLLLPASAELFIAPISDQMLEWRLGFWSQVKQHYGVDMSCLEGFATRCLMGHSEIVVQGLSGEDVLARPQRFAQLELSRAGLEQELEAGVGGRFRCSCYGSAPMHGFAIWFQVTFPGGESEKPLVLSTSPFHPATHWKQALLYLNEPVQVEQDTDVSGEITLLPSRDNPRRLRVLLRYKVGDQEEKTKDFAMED

SMILES: Nc1ncnc2c1ncn2[C@@H]1O[C@H](CSCCNC(=O)NCc2ccccc2)[C@@H](O)[C@H]1O [Compound 7a, 1-(2-((((2S,3S,4R,5R)-5-(6-amino-9H-purin-9-yl)-3,4-dihydroxytetrahydrofuran-2-yl)methyl)thio)ethyl)-3-benzylurea]
- inhibition at 10 µM [1]: < 35%
- inhibition at 10 µM [2]: 80%
- ΔTm at 100 µM [3]: 2.6 °C
- inhibition at 10 µM [4]: < 35%
- inhibition mechanism vs peptide substrate, PRMT3 ([5]; H4-21 15 to 240 μM, SAM 30 μM fixed): noncompetitive to the peptide substrate
- inhibition mechanism vs SAM, PRMT3 ([5]; SAM 30 to 240 μM, H4-21 30 μM fixed): competitive to SAM
- IC50 [6]: 351 nM
- IC50 [7]: 321 nM
